Test system: 699152-130-R-J1-PDC complex spheroid viability
Test: Anticancer human tumor 699152-130-R-J1-PDC patient-derived pancreatic carcinoma cell line growth inhibition [POLQ]
Conditions: for IC50: curve of first compound; for viability, T/C: stronger effect = lower value
Procedure, shortened: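 Patient-derived tumour cells were co-cultured with HUVEC and mesenchymal stem cells as multicellular spheroids at 37 °C. They were treated with POLQ inhibitors (novobiocin, ART-558, RP6685) alone or combined with other agents. Top concentrations were at or near clinical Cmax (otherwise 10 microM; SN-38 at 1 microM), decreasing in half-log steps.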

[1] = second compound 0.0316 µM, first compound 0.0316 µM
[2] = second compound 0.0316 µM, first compound 0.1 µM
[3] = second compound 0.0316 µM, first compound 0.316 µM
[4] = second compound 0.0316 µM, first compound 1 µM
[5] = second compound 0.0316 µM, first compound 3.16 µM
[6] = second compound 0.0316 µM, first compound 10 µM
[7] = second compound 0.1 µM, first compound 0.0316 µM
[8] = second compound 0.1 µM, first compound 0.1 µM
[9] = second compound 0.1 µM, first compound 0.316 µM
[10] = second compound 0.1 µM, first compound 1 µM
[11] = second compound 0.1 µM, first compound 3.16 µM
[12] = second compound 0.1 µM, first compound 10 µM
[13] = second compound 0.316 µM, first compound 0.0316 µM
[14] = second compound 0.316 µM, first compound 0.1 µM
[15] = second compound 0.316 µM, first compound 0.316 µM
[16] = second compound 0.316 µM, first compound 1 µM
[17] = second compound 0.316 µM, first compound 3.16 µM
[18] = second compound 0.316 µM, first compound 10 µM
[19] = second compound 1 µM, first compound 0.0316 µM
[20] = second compound 1 µM, first compound 0.1 µM
[21] = second compound 1 µM, first compound 0.316 µM
[22] = second compound 1 µM, first compound 1 µM
[23] = second compound 1 µM, first compound 3.16 µM
[24] = second compound 1 µM, first compound 10 µM
[25] = second compound 3.16 µM, first compound 0.0316 µM
[26] = second compound 3.16 µM, first compound 0.1 µM
[27] = second compound 3.16 µM, first compound 0.316 µM
[28] = second compound 3.16 µM, first compound 1 µM
[29] = second compound 3.16 µM, first compound 3.16 µM
[30] = second compound 3.16 µM, first compound 10 µM
[31] = second compound 10 µM, first compound 0.0316 µM
[32] = second compound 10 µM, first compound 0.1 µM
[33] = second compound 10 µM, first compound 0.316 µM
[34] = second compound 10 µM, first compound 1 µM
[35] = second compound 10 µM, first compound 3.16 µM
[36] = second compound 10 µM, first compound 10 µM
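Note: spheroids exposed to agents for 7 days before viability reading.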
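Throughout, for viability, T/C: percent of DMSO vehicle control viability so 100% = vehicle and 0% = no viable signal.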

SMILES: CCc1cc2c(N3CCc4c(cc(Cn5ccnc5)cc4-c4cn(C)nc4C(F)(F)F)C3=O)ccnc2c(OC)n1 + Nc1ccc(C#CCN(C(=O)Cc2ncc(C(F)(F)F)cc2C(F)(F)F)c2ccc(F)cc2)nn1
- IC50 (second compound 0.0316 µM): > 10 µM
- IC50 (second compound 0.1 µM): > 10 µM
- IC50 (second compound 0.316 µM): > 10 µM
- IC50 (second compound 1 µM): > 10 µM
- IC50 (second compound 3.16 µM): > 10 µM
- IC50 (second compound 10 µM): > 10 µM
- viability, T/C [1]: 93.3%
- viability, T/C [2]: 87.5%
- viability, T/C [3]: 91.8%
- viability, T/C [4]: 89.9%
- viability, T/C [5]: 102%
- viability, T/C [6]: 99.6%
- viability, T/C [7]: 88.4%
- viability, T/C [8]: 90%
- viability, T/C [9]: 89.4%
- viability, T/C [10]: 98%
- viability, T/C [11]: 101%
- viability, T/C [12]: 100%
- viability, T/C [13]: 86.2%
- viability, T/C [14]: 93.5%
- viability, T/C [15]: 93.6%
- viability, T/C [16]: 95.4%
- viability, T/C [17]: 106%
- viability, T/C [18]: 99.1%
- viability, T/C [19]: 92.5%
- viability, T/C [20]: 91.2%
- viability, T/C [21]: 107%
- viability, T/C [22]: 94.7%
- viability, T/C [23]: 106%
- viability, T/C [24]: 98.8%
- viability, T/C [25]: 88%
- viability, T/C [26]: 88.5%
- viability, T/C [27]: 96.4%
- viability, T/C [28]: 102%
- viability, T/C [29]: 107%
- viability, T/C [30]: 104%
- viability, T/C [31]: 101%
- viability, T/C [32]: 102%
- viability, T/C [33]: 111%
- viability, T/C [34]: 111%
- viability, T/C [35]: 109%
- viability, T/C [36]: 110%

SMILES: CCCS(=O)(=O)Nc1ccc(F)c(C(=O)c2c[nH]c3ncc(-c4ccc(Cl)cc4)cc23)c1F + COC1C(OC(N)=O)C(O)C(Oc2ccc3c(O)c(NC(=O)c4ccc(O)c(CC=C(C)C)c4)c(=O)oc3c2C)OC1(C)C
- IC50 (second compound 0.0316 µM): > 10 µM
- IC50 (second compound 0.1 µM): > 10 µM
- IC50 (second compound 0.316 µM): > 10 µM
- IC50 (second compound 1 µM): > 10 µM
- IC50 (second compound 3.16 µM): > 10 µM
- IC50 (second compound 10 µM): > 10 µM
- viability, T/C [1]: 117%
- viability, T/C [2]: 105%
- viability, T/C [3]: 125%
- viability, T/C [4]: 151%
- viability, T/C [5]: 172%
- viability, T/C [6]: 64.7%
- viability, T/C [7]: 115%
- viability, T/C [8]: 109%
- viability, T/C [9]: 126%
- viability, T/C [10]: 159%
- viability, T/C [11]: 191%
- viability, T/C [12]: 64.1%
- viability, T/C [13]: 108%
- viability, T/C [14]: 112%
- viability, T/C [15]: 134%
- viability, T/C [16]: 149%
- viability, T/C [17]: 177%
- viability, T/C [18]: 59.9%
- viability, T/C [19]: 105%
- viability, T/C [20]: 115%
- viability, T/C [21]: 126%
- viability, T/C [22]: 147%
- viability, T/C [23]: 171%
- viability, T/C [24]: 64.1%
- viability, T/C [25]: 105%
- viability, T/C [26]: 121%
- viability, T/C [27]: 124%
- viability, T/C [28]: 145%
- viability, T/C [29]: 281%
- viability, T/C [30]: 68.3%
- viability, T/C [31]: 107%
- viability, T/C [32]: 114%
- viability, T/C [33]: 123%
- viability, T/C [34]: 148%
- viability, T/C [35]: 175%
- viability, T/C [36]: 66.4%

From PubChem BioAssay AID1963835 (Molecular Pharmacology Branch, DTP, NCI, 2024)
